The source made the active and inactive calls. The calls are words filed in the database; no cut-off is given here.
Legend:
RAW264.7 [1] = test: Antiinflammatory activity in LPS-induced mouse RAW264.7 cells assessed as decrease in COX-2 expression at 10 uM pretreated for 2 hrs followed by stimulation with LPS for 22 hrs by Western blot analysis; format: functional, cell-based; details: time 24.0 hrs
RAW264.7 [2] = test: Antiinflammatory activity in LPS-induced mouse RAW264.7 cells assessed as decrease in IL-1beta expression at 6 uM pretreated for 2 hrs followed by stimulation with LPS for 6 hrs by RT-PCR analysis; format: functional, cell-based
RAW264.7 [3] = test: Antiinflammatory activity in LPS-induced mouse RAW264.7 cells assessed as decrease in IL-6 expression at 6 uM pretreated for 2 hrs followed by stimulation with LPS for 6 hrs by RT-PCR analysis; format: functional, cell-based
RAW264.7 [4] = test: Antiinflammatory activity in LPS-induced mouse RAW264.7 cells assessed as decrease in IL-1beta expression at 6 uM pretreated for 2 hrs followed by stimulation with LPS for 6 hrs by Western blot analysis; format: functional, cell-based
RAW264.7 [5] = test: Antiinflammatory activity in LPS-induced mouse RAW264.7 cells assessed as decrease in COX-2 expression pretreated for 2 hrs followed by stimulation with LPS for 22 hrs by Western blot analysis; format: functional, cell-based
RAW264.7 [6] = test: Antiinflammatory activity in LPS-induced mouse RAW264.7 cells assessed as decrease in IL-6 expression at 6 uM pretreated for 2 hrs followed by stimulation with LPS for 6 hrs by Western blot analysis; format: functional, cell-based; details: time 8.0 hrs
[7] = Cytotoxicity against mouse RAW264.7 cells assessed as cell viability after 24 hrs by MTT assay; format: toxicity, cell-based

For `CC(=O)OC[C@]1(O)CC[C@@H]2[C@@H]1CC(C)(C)C[C@H]1C[C@]12C`, the Activity (RAW264.7 [1]) was “Active”.
With `CC(=O)OC[C@@]1(O)CC[C@@H]2[C@@H]1CC(C)(C)C[C@H]1C[C@]12C` the Activity (RAW264.7 [2]) was “Active”, the Activity (RAW264.7 [3]) was “Active” and the Activity (RAW264.7 [4]) was “Active”. For the same compound, the IC50 (RAW264.7 [5]; Mus musculus, RAW264.7) was 4.61 µM, the Activity (RAW264.7 [1]) was “Active” and the Activity (RAW264.7 [6]) was “Active”. For the same compound, the IC50 at 24 h [7] was > 10 µM.
With `CC(=O)OCC1(O)CCC2C1CC(C)(C)CC1CC12C` (single isomer, unassigned; (+)) [listing 1 of 2 here] the Activity (RAW264.7 [2]) was “Active”, the Activity (RAW264.7 [3]) was “Active” and the Activity (RAW264.7 [4]) was “Active”. For the same compound, the Activity (RAW264.7 [1]) was “Active” and the Activity (RAW264.7 [6]) was “Active”.
In the case of `CC(=O)OCC1(O)CCC2C1CC(C)(C)CC1CC12C` (single isomer, unassigned; (-)) [listing 1 of 2 here], the Activity (RAW264.7 [2]) is reported as “Active”, the Activity (RAW264.7 [3]) is reported as “Active” and the Activity (RAW264.7 [4]) is reported as “Active”. For the same compound, the Activity (RAW264.7 [1]) was “Active” and the Activity (RAW264.7 [6]) was “Active”.
For `CC(=O)OCC1(O)CCC2C1CC(C)(C)CC1CC12C` (single isomer, unassigned; (-)) [listing 2 of 2 here], the IC50 (RAW264.7 [5]; raw264.7) was 8.18 µM.
For `C=CCC(C)(C)C[C@@H]1C(=O)CC[C@H]1C(=C)C`, the Activity (RAW264.7 [2]) was “Active”, the Activity (RAW264.7 [3]) was “Active” and the Activity (RAW264.7 [4]) was “Active”. The IC50 (RAW264.7 [5]; Mus musculus, RAW264.7) was 8.17 µM, the Activity (RAW264.7 [1]) was “Active” and the Activity (RAW264.7 [6]) was “Active”. For the same compound, the IC50 at 24 h [7] was > 10 µM.
For `CC(=O)OCC1(O)CCC2C1CC(C)(C)CC1CC12C` (single isomer, unassigned; (+)) [listing 2 of 2 here], the IC50 (RAW264.7 [5]; Mus musculus, RAW264.7) was 6.64 µM and the IC50 at 24 h [7] was > 10 µM.
